Test [1] deals with Human tumor cells. Description: Soft Agar Assay (anchorage-independent growth, colony count after MTT staining). The test is classed as cell-based. To be noted: one range stated for the whole list of compounds. The method, then:
Anchorage-independent growth is a characteristic of tumorigenic cell lines. Human tumor cells are suspended in growth medium containing 0.3% agarose and an indicated concentration of a farnesyl transferase inhibitor. The solution is overlayed onto growth medium solidified with 0.6% agarose containing the same concentration of farnesyl transferase inhibitor as the top layer. After the top layer is solidified, plates are incubated for 10-16 days at 37°C under 5% CO2 to allow colony outgrowth. After incubation, the colonies are stained by overlaying the agar with a solution of MTT (3-[4,5-dimethylthiazol-2-yl]-2,5-diphenyltetrazolium bromide, Thiazolyl blue) (1 mg/mL in PBS). Colonies can be counted and the IC50's can be determined.

Test [2] addresses farnesyl protein transferase (Homo sapiens, UniProt P49354+P49356). The experiment in a line: FPT IC50, inhibition of farnesyl protein transferase, in vitro enzyme assay (procedure of WO 95/10516). The class given is biochemical. Particulars: one range stated for the whole list of compounds. The method, then: (§1) FPT IC50 (inhibition of farnesyl protein transferase, in vitro enzyme assay), GGPT IC50 (inhibition of geranylgeranyl protein transferase, in vitro enzyme assay) and COS Cell IC50 (Cell-Based Assay) were determined following the assay procedures described in WO 95/10516, published April 20, 1995. Cell Mat Assay, and anti-tumor activity (in vivo anti-tumor studies) could be determined by the assay procedures described in WO 95/10516. The disclosure of WO 95/10516 is incorporated herein by reference thereto.

In test [3] the test system is COS Cell. Description: COS Cell IC50 (Cell-Based Assay, procedure of WO 95/10516). Particulars: one range stated for the whole list of compounds. The procedure: as §1
Test [4] addresses geranylgeranyl protein transferase (Rattus norvegicus, UniProt P53610+Q04631). The experiment in a line: GGPT IC50, inhibition of geranylgeranyl protein transferase, in vitro enzyme assay (procedure of WO 95/10516). The class given is biochemical. The method, then:
as §1

The mark [5] stands for this setting: H-ras, read-out: FPT IC50 (H-ras).
The mark [6] stands for this setting: K-ras, read-out: FPT IC50 (K-ras).

Read-outs that look alike come from different tables or passages of the source. Where only a bound is given, the exact number is not on record here.

farnesyl protein transferase, sequence (P49356 whole entry, one chain of several): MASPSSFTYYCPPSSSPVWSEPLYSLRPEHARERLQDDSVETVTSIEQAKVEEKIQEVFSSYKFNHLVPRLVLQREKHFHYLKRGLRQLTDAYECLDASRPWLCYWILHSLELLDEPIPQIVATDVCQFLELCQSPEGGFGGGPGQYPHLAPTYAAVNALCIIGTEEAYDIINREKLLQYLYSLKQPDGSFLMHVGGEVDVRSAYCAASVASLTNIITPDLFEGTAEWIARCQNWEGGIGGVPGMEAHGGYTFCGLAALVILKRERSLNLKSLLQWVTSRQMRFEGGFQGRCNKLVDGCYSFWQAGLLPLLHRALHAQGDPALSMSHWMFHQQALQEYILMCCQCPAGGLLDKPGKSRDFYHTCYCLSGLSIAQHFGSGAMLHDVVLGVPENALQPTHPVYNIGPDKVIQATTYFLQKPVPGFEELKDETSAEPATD

As for `O=C(CC1CCN(C(=O)[C@@H]2CSCN2)CC1)N1CCC([C@H]2c3ncc(Br)cc3CCc3cc(Cl)cc(Br)c32)CC1` [Compound 80.0-B], the half-maximal inhibitory concentration (IC50) in test [1] is not below 90 nM.

As for `NC(=O)NC(=O)N=C(Oc1ccccc1)N1CCC(CC(=O)N2CCN(C3c4ccc(Cl)cc4CCc4cc(Br)cnc43)CC2)CC1` (stereo not drawn) [Compound 16.1, PHENYL N-[[(AMINOCARBONYL)AMINO]CARBONYL]-4-[2-[4-(3-BROMO-8-CHLORO-6,11-DIHYDRO-5H-BENZO[5,6]CYCLOHEPTA-[1,2-b]PYRIDIN-11-YL)-1-PIPERAZINYL]-2-OXOETHYL]-1-PIPERIDINECARBOXIMIDATE], the IC50 in test [2] (setting [5]) was not below 0.8 nM.

With `N#CN1CCC(CC(=O)N2CCC([C@H]3c4ncc(Br)cc4CCc4cc(Cl)cc(Br)c43)CC2)CC1` [Compound 29.0], the values for the IC50 in test [3] and in test [2] (setting [5]) were not below 12 nM and not below 0.8 nM, respectively.

`N=C(Oc1ccccc1)N1CCC(CC(=O)N2CCC([C@H]3c4ncc(Br)cc4CCc4cc(Cl)cc(Br)c43)CC2)CC1` [Compound 27.0]: the 50% inhibitory concentration (IC50) in test [3] is not below 12 nM; in test [2] (setting [5]), not below 0.8 nM; in test [2] (setting [6]) it was 16 to 782 nM; in test [1] it was not below 90 nM.

`CC(=O)N1CCC(CC(=O)N2CCC([C@H]3c4ncc(Br)cc4CCc4cc(Cl)cc(Br)c43)CC2)CC1` [Compound 36.0-B]: the IC50 was not below 7 nM in test [3] and not below 90 nM in test [1].

In the case of `O=C(CC1CCN(C(=O)c2ccc(O)nc2)CC1)N1CCC([C@H]2c3ncc(Br)cc3CCc3cc(Cl)cc(Br)c32)CC1` [Compound 47.0-B], the IC50 in test [3] is not below 7 nM; in test [1], not below 90 nM.

As to `O=C(CC1CCN(C(=O)c2cn[nH]c2)CC1)N1CCC([C@H]2c3ncc(Br)cc3CCc3cc(Cl)cc(Br)c32)CC1` [Compound 31.0-B], the IC50 was not below 7 nM in test [3] and not below 90 nM in test [1].

As for `N#CN1CCC(CC(=O)N2CCN(C3c4ccc(Cl)cc4CCc4cc(Br)cnc43)CC2)CC1` (stereo not drawn) [Compound 5.0], in test [2] (setting [5]), the IC50 is not below 0.8 nM.

As to `CC(=O)OC1CCC(C(=O)N2CCC(CC(=O)N3CCC(C4c5ncc(Br)cc5CCc5cc(Cl)cc(Br)c54)CC3)CC2)CC1` (stereo not drawn) [Compound 66.0-B], the IC50 in test [3] is not below 7 nM; in test [1], not below 90 nM.

`N=C(NC(=O)NC(N)=O)N1CCC(CC(=O)N2CCN(C3c4ccc(Cl)cc4CCc4cc(Br)cnc43)CC2)CC1` (stereo not drawn) [Compound 17.1, N-[[(AMINOCARBONYL)AMINO]CARBONYL]-4-[2-[4-(3-BROMO-8-CHLORO-6,11-DIHYDRO-5H-BENZO[5,6]CYCLOHEPTA[1,2-b]-PYRIDIN-11-YL)-1-PIPERAZINYL]-2-OXOETHYL]-1-PIPERIDINECARBOXIMIDAMIDE]: the IC50 in test [2] (setting [5]) is not below 0.8 nM.

On to `N=C(N)N1CCC(CC(=O)N2CCC(C3c4ccc(Cl)c(Br)c4CCc4cc(Br)cnc43)CC2)CC1` (stereo not drawn) [Compound 30.0], for which the IC50 in test [3] was not below 12 nM; in test [2] (setting [5]), not below 0.8 nM.

Turning to `N#CNC(=N)N1CCC(CC(=O)N2CCN(C3c4ccc(Cl)cc4CCc4cc(Br)cnc43)CC2)CC1` (stereo not drawn) [Compound 3.0, 4-[2-[4-(3-BROMO-8-CHLORO-6,11-DIHYDRO-5H-BENZO[5,6]CYCLOHEPTA[1,2-b]PYRIDIN-11-YL)-1-PIPERAZINYL]-2-OXOETHYL]-N-CYANO-1-PIPERIDINE-CARBOXIMIDAMIDE], in test [2] (setting [5]), the IC50 is not below 0.8 nM.

With `O=C(CC1CCN(C(=O)c2ccc[n+]([O-])c2)CC1)N1CCC([C@H]2c3ncc(Br)cc3CCc3cc(Cl)cc(Br)c32)CC1` [Compound 46.0-B], the IC50 in test [3] is not below 7 nM; in test [1], not below 90 nM.

For `N=C(NS(N)(=O)=O)N1CCC(CC(=O)N2CCN(C3c4ccc(Cl)cc4CCc4cc(Br)cnc43)CC2)CC1` (stereo not drawn) [Compound 7.0, 4-[2-[4-(3-BROMO-8-CHLORO-6,11-DIHYDRO-5H-BENZO[5,6]CYCLOHEPTA[1,2-b]PYRIDIN-11-YL)-1-PIPERAZINYL]-2-OXOETHYL]-N-SULFAMOYL-1-PIPERIDINE-CARBOXIMIDAMIDE], the IC50 in test [2] (setting [5]) was not below 0.8 nM.

As to `Cc1noc(C)c1C(=O)N1CCC(CC(=O)N2CCC([C@H]3c4ncc(Br)cc4CCc4cc(Cl)cc(Br)c43)CC2)CC1` [Compound 27.0-B], the values for the concentration for half-maximal inhibition (IC50) in test [3] and in test [1] were not below 7 nM and not below 90 nM, respectively.

For the compound `O=C(CC1CCN(C(=O)c2ccoc2)CC1)N1CCC([C@H]2c3ncc(Br)cc3CCc3cc(Cl)cc(Br)c32)CC1` [Compound 84.0-B], the IC50 in test [3] was not below 7 nM; in test [1], not below 90 nM.

As to `N=C(Oc1ccccc1)N1CCC(CC(=O)N2CCC(C3c4ccc(Cl)c(Br)c4CCc4cc(Br)cnc43)CC2)CC1` (racemic) [Compound 26.0], the IC50 in test [2] (setting [5]) is not below 0.8 nM.

Take `CCn1cccc1C(=O)N1CCC(CC(=O)N2CCC([C@H]3c4ncc(Br)cc4CCc4cc(Cl)cc(Br)c43)CC2)CC1` [Compound 40.0-B]: the results for the half-inhibitory concentration (IC50) in test [3], in test [2] (setting [5]) and in test [1] were not below 7 nM, not below 0.8 nM and not below 90 nM, respectively.

As to `O=C(O)c1cncc(C(=O)N2CCC(CC(=O)N3CCC([C@H]4c5ncc(Br)cc5CCc5cc(Cl)cc(Br)c54)CC3)CC2)c1` [Compound 25.0-B], the IC50 in test [3] was not below 7 nM; in test [1] it was not below 90 nM.

Regarding `O=C(CC1CCN(C(=O)c2ncccc2O)CC1)N1CCC([C@H]2c3ncc(Br)cc3CCc3cc(Cl)cc(Br)c32)CC1` [Compound 83.0-B], the figures for the IC50 in test [3] and in test [1] were not below 7 nM and not below 90 nM, respectively.

Turning to `N#CN=C(Oc1ccccc1)N1CCC(CC(=O)N2CCN(C3c4ccc(Cl)cc4CCc4cc(Br)cnc43)CC2)CC1` (stereo not drawn) [Compound 2.0, PHENYL 4-[2-[4-(3-BROMO-8-CHLORO-6,11-DIHYDRO-5H-BENZO[5,6]CYCLOHEPTA[1,2-b]PYRIDIN-11-YL)-1-PIPERAZINYL]-2-OXOETHYL]-N-CYANO-1-PIPERIDINE- CARBOXIMIDATE], in test [2] (setting [5]), the IC50 is not below 0.8 nM.

Regarding `O=C(CC1CCN(C(=O)c2cc[n+]([O-])cc2)CC1)N1CCC([C@H]2c3ncc(Br)cc3CCc3cc(Cl)cc(Br)c32)CC1` [Compound 45.0-B], the IC50 in test [3] is not below 7 nM; in test [1], not below 90 nM.

`O=C(CC1CCN(C(=O)c2cccnc2O)CC1)N1CCC([C@H]2c3ncc(Br)cc3CCc3cc(Cl)cc(Br)c32)CC1` [Compound 48.0-B]: the IC50 is not below 7 nM in test [3] and not below 90 nM in test [1].

Regarding `CON=C(N)N1CCC(CC(=O)N2CCN(C3c4ccc(Cl)cc4CCc4cc(Br)cnc43)CC2)CC1` (stereo not drawn) [Compound 13.0, 4-[2-[4-(3-BROMO-8-CHLORO-6,11-DIHYDRO-5H-BENZO[5,6]CYCLOHEPTA[1,2-b]PYRIDIN-11-YL)-1-PIPERAZINYL]-2-OXOETHYL]-N-METHOXY-1-PIPERIDINE-CARBOXIMIDATE], in test [2] (setting [5]), the IC50 was not below 0.8 nM.

For `N#CN1CCC(CC(=O)N2CCC(C3c4ccc(Cl)c(Br)c4CCc4cc(Br)cnc43)CC2)CC1` (stereo not drawn) [Compound 28.0], the IC50 is more than 9600 nM in test [4], not below 12 nM in test [3], not below 0.8 nM in test [2] (setting [5]) and 16 to 782 nM in test [2] (setting [6]).

As for `N=C(NCc1cccnc1)N1CCC(CC(=O)N2CCC(C3c4ccc(Cl)c(Br)c4CCc4cc(Br)cnc43)CC2)CC1` (stereo not drawn) [Compound 31.0], the IC50 in test [4] is more than 7500 nM; in test [3], not below 12 nM; in test [2] (setting [5]) it was not below 0.8 nM; in test [2] (setting [6]) it was 16 to 782 nM.

On to `NC(=NO)N1CCC(CC(=O)N2CCN(C3c4ccc(Cl)cc4CCc4cc(Br)cnc43)CC2)CC1` (stereo not drawn) [Compound 12.0, 4-[2-[4-(3-BROMO-8-CHLORO-6,11-DIHYDRO-5H-BENZO[5,6]CYCLOHEPTA[1,2-b]PYRIDIN-11-YL)-1-PIPERAZINYL]-2-OXOETHYL]-N-HYDROXY-1-PIPERIDINECARBOXIMIDATE], for which the half-inhibitory concentration (IC50) in test [2] (setting [5]) is not below 0.8 nM.

Take `N=C(Oc1ccccc1)N1CCC(CC(=O)N2CCN(C3c4ccc(Cl)cc4CCc4cc(Br)cnc43)CC2)CC1` (stereo not drawn) [Compound 4.0, PHENYL 4-[2-[4-(3-BROMO-8-CHLORO-6,11-DIHYDRO-5H-BENZO[5,6]CYCLOHEPTA[1,2-b]PYRIDIN-11-YL)-1-PIPERAZINYL]-2-OXOETHYL]-1-PIPERIDINECARBOXIMIDATE]: in test [2] (setting [5]), the IC50 is not below 0.8 nM.

Regarding `NC(=O)c1cncc(C(=O)N2CCC(CC(=O)N3CCC([C@H]4c5ncc(Br)cc5CCc5cc(Cl)cc(Br)c54)CC3)CC2)c1` [Compound 29.0-B], the IC50 in test [3] is not below 7 nM; in test [1], not below 90 nM.

With `O=C1N[C@H](C(=O)N2CCC(CC(=O)N3CCC([C@H]4c5ncc(Br)cc5CCc5cc(Cl)cc(Br)c54)CC3)CC2)CO1` [Compound 28.0-B], the IC50 is not below 7 nM in test [3] and not below 90 nM in test [1].

Take `O=C(CC1CCN(C(=O)N2CCOCC2)CC1)N1CCC([C@H]2c3ncc(Br)cc3CCc3cc(Cl)cc(Br)c32)CC1` [Compound 100.0-B]: the results for the IC50 in test [3] and in test [1] were not below 7 nM and not below 90 nM, respectively.

For `O=C1C[C@@H](C(=O)N2CCC(CC(=O)N3CCC([C@H]4c5ncc(Br)cc5CCc5cc(Cl)cc(Br)c54)CC3)CC2)NC(=O)N1` [Compound 78.0-B], the IC50 in test [3] was not below 7 nM; in test [1] it was not below 90 nM.

As usually defined, the IC50 is the concentration that gives 50% inhibition.
